Experimental findings from patent publication US9504702B2, “Methods of inhibition of protein fucosylation in vivo using fucose analogs” (Seattle Genetics, Inc., priority 2010, dated 2016) are described below.

Assay [1] relates to LP-1, a human multiple myeloma cell line (IgG fucosylation). Description: Fucosylation of LP-1-generated IgG, AOL dot blot. Format: cell-based. The following applies: for inhibition of IgG fucosylation in human cells (decrease in AOL signal, dot blot) / dot blot results (% fucose signal of control) / % of control fucosylated IgG value: 100 μM; for inhibition of IgG fucosylation in human cells (decrease in AOL signal, dot blot) / activity at 100 µM / % of control fucosylated IgG value: LP-1 cells; for activity at 100 µM: Homo sapiens, LP-1, 120 h, read-out: % of control fucosylated IgG value; for activity at 100 µM / % of control fucosylated IgG value: 5 days, AOL dot blot, multiple samples separated by semicolon; for dot blot results (% fucose signal of control): LP-1-generated IgG. The procedure:
To further evaluate the activities of different fucose analogs, 48 different fucose analogs and other four glycosylation inhibitors were tested for their ability to affect the fucosylation the LP-1-generated IgG. LP-1 cells (250,000 cells/mL, 3 mL per compound in 6-well plates) were incubated with 100 μM of each fucose analog for 5 days at 37° C. with a humidified atmosphere of 5% CO2 in IgG-depleted tissue culture media (90% RPMI with 10% IgG-depleted heat inactivated FBS). The IgG was isolated as described above using only 0.5 mL of MabSelect™ protein A resin slurry and one spin cup per sample with elution in 400 μL of IgG elution buffer into 25 μL of 9 M Tris buffer, pH 9. The eluates were concentrated to 10-20 μL per sample and 2 μL of each of the concentrated eluates were dotted onto a nitrocellulose membrane and stained with Ponceau S to estimate and adjust the sample loading for AOL staining. From this estimation of total protein in each sample, approximately 0.5 μg of each sample was dotted onto the membrane, air-dried, and stained with Ponceau S. An image of this stained membrane was captured using an Alpha Innotech FlourChem® Q system. The membrane was then blocked with 5% Bovine Serum Albumin (BSA) in Tris Buffered Saline (TBS) for 1 hr, washed with TBST (TBS with […]) 3 times and then incubated with 5 μg/ml biotinylated-AOL for 1 hr. The membrane was washed again with TBST 3 times, followed by Streptavidin-HRP incubation for 30 min and final washes with TBST 3 times.

Assay [2] has as its system antibody core fucosylation (CHO DG44 cell line producing humanized IgG1 anti-CD70 antibody h1F6). Description: Inhibition of antibody core fucosylation in CHO DG44 cell culture producing h1F6. It counts as cell-based. The following applies: day 5, CHO DG44 h1F6; for Inhibition at 50 μM: 50 μM fucose analog; for inhibition at 1000 µM / Inhibition at 1 mM: 1 mM fucose analog. As to the method: Fucose analogs have been evaluated for their effect on antibody core fucosylation at concentrations of 50 μM and 1 mM generally as described in Published US Patent Application 2009-0317869. Briefly, the protocol was as follows: A CHO DG44 cell line producing a humanized IgG1 anti-CD70 monoclonal antibody, h1F6 (see International Patent Publication WO 06/113909) was cultured at 7.5×10^5 cells per mL in 2 mLs of CHO culture media at 37°, 5% CO2 and shaking at 100 RPM in a 6 well tissue culture plate. Media was supplemented with insulin like growth factor (IGF), penicillin, streptomycin and either 1 mM or 50 μM of the fucose analog. On day 5 post inoculation, the culture was centrifuged at 13000 RPM for 5 minutes to pellet the cells; antibodies were then purified from supernatant.
Antibody purification was performed by applying the conditioned media to protein A resin pre-equilibrated with 1× phosphate buffered saline (PBS), pH 7.4. After washing resin with 20 resin bed volumes of 1×PBS, antibodies were eluted with 5 resin bed volumes of Immunopure IgG elution buffer (Pierce Biotechnology, Rockford, Ill.). A 10% volume of 1M Tris pH 8.0 was added to neutralize the eluted fraction.

Where [3] appears, read: 120 h, read-out: Inhibition at 50 μM.
Where [4] appears, read: CHO-DG44, 120 h, read-out: Inhibition at 50 μM.

Like-named read-outs stand apart in the source and are kept apart here.

Regarding `CC(=O)O[C@@H]([C@@H](C=O)OC(C)=O)[C@H](OC(C)=O)C(C)(C)OC(C)=O` [SGD-1964, 5-methylketo fucose tetraacetate], in assay [1], the “inhibition of IgG fucosylation in human cells (decrease in AOL signal, dot blot)” value (“inhibition … (decrease in AOL signal, dot blot)” for short) is “potentially strong inhibitors”; the activity at 100 µM came to 5%; the “dot blot results (% fucose signal of control)” value is on record as 5 % fucose signal of control.

Take 5-epoxy fucose tetraacetate [SGD-2020]: in assay [1], the “% of control fucosylated IgG value” is on record as 5 % of control; the “inhibition … (decrease in AOL signal, dot blot)” value is “potentially strong inhibitors”; the “dot blot results (% fucose signal of control)” value is 5 % fucose signal of control.

For the compound `CC(=O)OC(CC(=O)O)[C@@H](OC(C)=O)[C@@H](OC(C)=O)[C@@H](C=O)OC(C)=O` (some centres unmarked) [SGD-1959, 5-carboxymethyl arabinose tetraacetate], in assay [2] (setting [3]), the Inhibition at 50 μM was 30%. The compound further gave an inhibition at 1000 µM in assay [2] (120 h) above 80%. The activity at 100 µM in assay [1] came to 94%.

Consider `CC(=O)OC1O[C@@H](C(C)C)[C@@H](OC(C)=O)[C@@H](OC(C)=O)[C@@H]1OC(C)=O` (stereo partly drawn) [SGD-1977, (3S,4R,5R,6S)-6-isopropyltetrahydro-2H-pyran-2,3,4,5-tetrayl tetraacetate], for which, in assay [1], the activity at 100 µM is 79%.

As for `C[C@H](O)[C@@H](O)[C@@H](O)[C@@H](O)C=O` [SGD-2113, 6-deoxy-L-talose], the activity at 100 µM in assay [1] was 93%.

Consider `O[C@H]1[C@H](O)[C@@H](O)CN2CC[C@H](O)[C@H]12` [SGD-1960, castanospermine, reference compound], for which the activity at 100 µM in assay [1] turned out to be 300%.

For the compound `CC(=O)OC1CC(OC(C)=O)C(OC(C)=O)C(C)O1` (centres unmarked) [SGD-2108, 6-methyl-tetrahydro-2H-pyran-2,4,5-triyl triacetate], the Inhibition at 50 μM in assay [2] (setting [4]) amounted to 0%. Besides, in assay [1], the activity at 100 µM was found to be 104%.

In the case of `CC(=O)OC[C@@H](OC(C)=O)[C@H](OC(C)=O)[C@H](OC(C)=O)[C@H](C=O)OC(C)=O` [SGD-2074, D-galactose pentaacetate], the activity at 100 µM in assay [1] amounted to 118%.

In the case of “alkynyl fucose tetraisobutanoate [SGD-2043]”, in assay [2], the “Inhibition at 50 μM” value is listed as above 80% and the “Inhibition at 1 mM” value was above 80%. In assay [1], the “% of control fucosylated IgG value” is reported as 34 % of control.

Regarding `CC(=O)OC1OC(CCl)[C@@H](OC(C)=O)[C@@H](OC(C)=O)[C@@H]1OC(C)=O` (stereo partly drawn) [6-chloro-fucose tetraacetate, (3S,4R,5S)-6-(chloromethyl)tetrahydro-2H-pyran-2,3,4,5-tetrayl tetraacetate], the Inhibition at 50 μM in assay [2] (setting [4]) is 20%. In addition, in assay [2] (CHO-DG44, 120 h), the inhibition at 1000 µM lay in the range of 20 to 30%.

Take “alkynyl fucose tetra PEG ester [SGD-2057]”: in assay [2], the “Inhibition at 50 μM” value is above 80% and the “Inhibition at 1 mM” value was above 80%. For the same compound, the “% of control fucosylated IgG value” in assay [1] is 64 % of control.

Consider `O=C[C@H](O)[C@@H](O)[C@@H](O)[C@H](O)CS` [SGD-2025, 6-thio galactose pentaacetate], for which the activity at 100 µM in assay [1] amounted to 44%.

With `CC(=O)OC1C(C)OC(OC(C)=O)C(F)(F)C1OC(C)=O` (stereo not drawn) [2-deoxy-2,2-difluorofucopyranose triacetate (alpha)], in assay [2], the “Inhibition at 50 μM” value turned out to be 0% and the “Inhibition at 1 mM” value is on record as 64%.

As to `CC(=O)OC1C=COC(C)C1OC(C)=O` (centres unmarked) [SGD-2080, 1,2-dideoxy-1,2-dehydro fucose diacetate], the “% of control fucosylated IgG value” in assay [1] was 159 % of control.

In the case of “alkynyl fucose tetraisonicotinate [SGD-2058]”, in assay [2], the “Inhibition at 50 μM” value is recorded as above 80% and the “Inhibition at 1 mM” value was above 80%. Moreover, in assay [1], the “% of control fucosylated IgG value” was 34 % of control.

Regarding `C#C[C@@H]1OC(OC(=O)CC)[C@@H](OC(=O)CC)[C@H](OC(=O)CC)[C@@H]1OC(=O)CC` (some centres unmarked) [SGD-2010, 5-ethynylarabinose tetrapropropanoate], in assay [2], the “Inhibition at 50 μM” value is above 80% and the “Inhibition at 1 mM” value is reported as above 80%. Also, in assay [1], the “% of control fucosylated IgG value” was 1.5 % of control and the “inhibition … (decrease in AOL signal, dot blot)” value is “potentially strong inhibitors”.

With “benzyloxy fucose tetraacetate [SGD-2048]”, in assay [2], the “Inhibition at 50 μM” value is 0% and the “Inhibition at 1 mM” value was 75%. In assay [1], the “% of control fucosylated IgG value” is listed as 114 % of control.

Take `CC(=O)OC1OC(CI)[C@@H](OC(C)=O)[C@@H](OC(C)=O)[C@@H]1OC(C)=O` (stereo partly drawn) [6-iodo-fucose tetraacetate, (3S,4R,5S)-6-(iodomethyl)tetrahydro-2H-pyran-2,3,4,5-tetrayl tetraacetate]: the Inhibition at 50 μM in assay [2] (setting [4]) turned out to be 3%. The same compound had an inhibition at 1000 µM in assay [2] (CHO-DG44, 120 h) of 30%.

For the compound `CO[C@@H]1O[C@@H](C)[C@@H](O)[C@@H](O)[C@@H]1O` [SGD-1932, Methyl a-L-fucopyranoside], the “% of control fucosylated IgG value” in assay [1] is recorded as 87 % of control.

As for `CC(=O)OC(C#N)[C@H]1OC(OC(C)=O)[C@@H](OC(C)=O)[C@@H]1OC(C)=O` (some centres unmarked) [5-cyanoarabinofuranose tetraacetate], the Inhibition at 50 μM in assay [2] (setting [3]) is 5 to 10%.

As to `C#CC1OC(OC(=O)C(C)(C)C)C(O)C(OC(=O)C(C)(C)C)C1O` (centres unmarked) [Alkynyl fucose di(trimethylacetate), 5-ethynylarabinose 1,3-(trimethylacetate)], the “Inhibition at 50 μM” value in assay [2] is reported as above 80%.

Regarding `O=C1O[C@H]([C@@H](O)CO)[C@@H](O)[C@@H]1O` [SGD-1931, L-galactono-1,4-lactone], in assay [1], the activity at 100 µM turned out to be 81%.

Turning to `C#CCNC[C@H](O)[C@@H](O)[C@@H](O)[C@H](O)C=O` [SGD-1950, 6-propargylamino fucose], in assay [1], the activity at 100 µM was 40%.

Regarding `C#CC(OC(=O)CCCCC)[C@@H](OC(=O)CCCCC)[C@@H](OC(=O)CCCCC)[C@@H](C=O)OC(=O)CCCCC` (some centres unmarked) [SGD-2012, 5-ethynylarabinose tetrahexanoate], in assay [2] (setting [4]), the Inhibition at 50 μM is above 80%. The inhibition at 1000 µM in assay [2] (CHO-DG44, 120 h) is above 80%. In addition, the activity at 100 µM in assay [1] was determined as 67%.

`CCC(=O)[C@H](OC(C)=O)[C@@H](OC(C)=O)[C@@H](OC(C)=O)[C@@H](C=O)OC(C)=O` [SGD-2067, 6-keto-6-ethyl fucose tetraacetate]: in assay [1], the “inhibition … (decrease in AOL signal, dot blot)” value was “potentially strong inhibitors”; the activity at 100 µM turned out to be 3%; the “dot blot results (% fucose signal of control)” value is on record as 3 % fucose signal of control.

On to `CC(=O)OC1COC(C)C(OC(C)=O)C1OC(C)=O` (centres unmarked) [SGD-2081, 1-deoxy fucose triacetate], for which the “% of control fucosylated IgG value” in assay [1] was 70 % of control.

Turning to `CC(=O)OC1OC(C#N)[C@@H](OC(C)=O)[C@@H](OC(C)=O)[C@@H]1OC(C)=O` (some centres unmarked) [5-cyanoarabinopyranose tetraacetate], in assay [2] (setting [3]), the Inhibition at 50 μM was 20%.

Take “5-carboxamido fucose tetraacetate [SGD-1995]”: in assay [1], the “% of control fucosylated IgG value” is 79 % of control.

Regarding `CC(=O)OC(CCC#N)[C@@H](OC(C)=O)[C@@H](OC(C)=O)[C@@H](C=O)OC(C)=O` (some centres unmarked) [SGD-2070, 5-(2-cyanoethyl)arabinose tetraacetate], in assay [1], the activity at 100 µM worked out at 51%.

Regarding “6-alkyne-6-acetoxy fucose tetraacetate [SGD-2004]”, the “% of control fucosylated IgG value” in assay [1] is 29 % of control.

Take `CC(=O)OC1C(C)OC(OC(C)=O)C(F)(F)C1OC(C)=O` (stereo not drawn) [2-deoxy-2,2-difluorofucopyranose triacetate (beta)]: in assay [2], the “Inhibition at 50 μM” value was determined as 0% and the “Inhibition at 1 mM” value is listed as 75%.

Turning to `COC(=O)[C@@H]1OC(OC(C)=O)[C@@H](OC(C)=O)[C@H](OC(C)=O)[C@@H]1OC(C)=O` (some centres unmarked) [SGD-2061, 6-carboxymethyl ester fucose tetraacetate], in assay [1], the “% of control fucosylated IgG value” is reported as 71 % of control.

On to `C#CC1OC(OC(=O)C(C)(C)C)C(OC(=O)C(C)(C)C)C(OC(=O)C(C)(C)C)C1O` (centres unmarked) [Alkynyl fucose 1,2,3-(trimethylacetate), 5-ethynylarabinose 1,2,3-(trimethylacetate)], for which the “Inhibition at 50 μM” value in assay [2] is on record as around 0%.
